Test system: NIDDM mice
Experiment: Oral glucose tolerance test after 28 days of oral dosing in NIDDM db/db mice (Example 2)
Type: in vivo, mouse
Details: HC extract 80 mg/Kg, sitagliptin 40 mg/Kg, p.o.
Protocol: Non-insulin dependent diabetic mellitus (NIDDM) male db/db (BKS.Cg-Dock 7^m+/+Lepr^db/JNarl) were used in the present study. They were supplied by National Laboratory Animal Center (NLAC) (Taipei, Taiwan) or by Jackson Laboratory (Bar Harbor, Me., USA). […] In Example 2, test compounds (i.e., HC extract (40 mg/Kg from day 1 to day 14; 80 mg/Kg from day 14 to day 28, p.o.), sitagliptin (40 mg/Kg, p.o.), or the combination of HC extract and sitagliptin) at the designated dose was fed to each mice by oral gavage from day 1, and continued for 27 consecutive days to day 28. […] Blood glucose, insulin, glucagon, glycated haemoglobin (HbA1c) levels were measured on designated days after overnight fasting. Then, oral glucose tolerance test (OGTT) was performed to evaluate effects of respective treatments on glucose homeostasis. Body weight of each test animal was also measured during the study period. The db/db mice were randomly divided into 4 groups: (1) the vehicle control group, (2) the HC extract (80 mg/kg), (3) the sitagliptin (40 mg/Kg) group, and […] the HC extract (80 mg/kg)+sitagliptin (40 mg/Kg) group. The mice were fasted for 5 hours and then respectively received the indicated treatments. […] The animals were treated by the manner described in the “Material and Methods” section.

Structure (SMILES): N[C@@H](CC(=O)N1CCn2c(nnc2C(F)(F)F)C1)Cc1cc(F)c(F)cc1F [sitagliptin]
- reduction in the level of total blood glucose (FIG. 3) (30 minutes time point post glucose treatment): about 11.3%
- effect on fasting blood glucose level (FIG. 2) (combination judged 30 minutes post glucose treatment vs either alone): reduction in the fasting blood glucose level

From patent publication US20190183959A1, “COMPOSITIONS, KITS AND METHODS FOR TREATING TYPE II DIABETES MELLITUS” (VITNOVO, INC., priority 2017, published 2019)
